# Target: T1, KRAS^G12C::SOS1 (Homo sapiens, UniProt Q07889)
# T1 sequence (Q07889 1-1333): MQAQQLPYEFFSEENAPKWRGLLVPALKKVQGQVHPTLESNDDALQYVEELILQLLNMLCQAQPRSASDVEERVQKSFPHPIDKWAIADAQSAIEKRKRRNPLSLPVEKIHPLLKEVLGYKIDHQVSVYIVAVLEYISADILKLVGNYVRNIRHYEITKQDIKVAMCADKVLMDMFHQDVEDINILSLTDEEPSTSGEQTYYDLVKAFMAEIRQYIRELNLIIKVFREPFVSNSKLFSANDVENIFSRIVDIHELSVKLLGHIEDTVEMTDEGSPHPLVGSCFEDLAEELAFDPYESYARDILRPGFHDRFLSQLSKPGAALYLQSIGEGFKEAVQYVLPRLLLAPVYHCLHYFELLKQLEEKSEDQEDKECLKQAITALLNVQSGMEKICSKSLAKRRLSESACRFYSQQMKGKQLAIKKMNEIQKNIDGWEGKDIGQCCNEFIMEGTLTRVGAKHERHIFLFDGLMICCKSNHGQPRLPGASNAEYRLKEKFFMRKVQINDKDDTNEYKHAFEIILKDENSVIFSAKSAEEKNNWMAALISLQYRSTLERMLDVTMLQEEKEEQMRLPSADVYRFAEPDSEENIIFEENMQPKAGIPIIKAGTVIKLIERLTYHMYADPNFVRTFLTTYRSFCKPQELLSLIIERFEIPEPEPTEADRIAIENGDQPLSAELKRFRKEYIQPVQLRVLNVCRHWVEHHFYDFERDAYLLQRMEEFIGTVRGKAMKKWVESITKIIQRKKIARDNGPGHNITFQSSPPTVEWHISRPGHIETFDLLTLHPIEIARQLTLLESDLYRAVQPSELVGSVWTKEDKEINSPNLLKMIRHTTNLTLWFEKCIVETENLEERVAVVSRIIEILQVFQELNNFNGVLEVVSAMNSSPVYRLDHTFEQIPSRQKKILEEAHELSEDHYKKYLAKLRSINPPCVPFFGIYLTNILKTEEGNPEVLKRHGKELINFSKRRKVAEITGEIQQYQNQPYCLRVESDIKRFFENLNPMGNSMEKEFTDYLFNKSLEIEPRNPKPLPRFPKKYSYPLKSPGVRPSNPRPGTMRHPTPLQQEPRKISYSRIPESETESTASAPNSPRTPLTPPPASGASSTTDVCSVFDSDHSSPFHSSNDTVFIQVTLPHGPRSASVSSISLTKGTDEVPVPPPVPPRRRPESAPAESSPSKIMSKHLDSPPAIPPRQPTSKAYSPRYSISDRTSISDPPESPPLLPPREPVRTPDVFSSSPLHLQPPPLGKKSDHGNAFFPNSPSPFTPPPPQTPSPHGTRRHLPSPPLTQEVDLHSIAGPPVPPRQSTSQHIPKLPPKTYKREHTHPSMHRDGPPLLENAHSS
# Experiment: KRAS G12C::SOS1 protein-protein interaction (PPI) inhibition assay (HTRF binding kit)
row,SMILES,IC50
1,"C[C@@H](NC(=O)c1ccc(=O)n(-c2ccccc2F)n1)c1cc(N)cc(C#N)c1F [Example 216, N-[(1R)-1-(5-amino-3-cyano-2-fluoro-phenyl)ethyl]-1-(2-fluorophenyl)-6-oxo-pyridazine-3-carboxamide]",1000 to 10000 nM
2,"C[C@@H](NC(=O)c1ccc(=O)n(Cc2ccccn2)n1)c1cc(N)cc(C(F)(F)F)c1 [Example 225, N-[(1R)-1-[3-amino-5-(trifluoromethyl)phenyl]ethyl]-6-oxo-1-(2-pyridylmethyl)pyridazine-3-carboxamide]",< 1000 nM
3,"C[C@@H](NC(=O)c1ccc(=O)n(CCF)n1)c1cc(N)cc(C(F)(F)F)c1 [Example 226, N-[(1R)-1-[3-amino-5-(trifluoromethyl)phenyl]ethyl]-1-(2-fluoroethyl)-6-oxo-pyridazine-3-carboxamide]",< 1000 nM
4,"C[C@@H](NC(=O)c1ccc(=O)n(Cc2ccccc2)n1)c1cc(N)cc(C(F)(F)F)c1 [Example 227, N-[(1R)-1-[3-amino-5-(trifluoromethyl)phenyl]ethyl]-1-benzyl-6-oxo-pyridazine-3-carboxamide]",< 1000 nM
5,"C[C@@H](NC(=O)c1ccc(=O)n(C)n1)c1cc(N)cc(C(F)(F)F)c1 [Example 228, N-[(1R)-1-[3-amino-5-(trifluoromethyl)phenyl]ethyl]-1-methyl-6-oxo-pyridazine-3-carboxamide]",< 1000 nM
6,"C[C@@H](NC(=O)c1ccc(=O)n(CCN(C)C)n1)c1cc(N)cc(C(F)(F)F)c1 [Example 229, N-[(1R)-1-[3-amino-5-(trifluoromethyl)phenyl]ethyl]-1-[2-(dimethylamino)ethyl]-6-oxo-pyridazine-3-carboxamide]",1000 to 10000 nM
7,C[C@@H](NC(=O)c1ccc(=O)n(-c2cccc(C(=O)N3CCCC3)c2F)n1)c1cc(N)cc(C(F)(F)F)c1 [Example 230],< 1000 nM
8,"CNC(=O)c1cccc(-n2nc(C(=O)N[C@H](C)c3cc(N)cc(C(F)(F)F)c3)ccc2=O)c1F [Example 231, (R)-N-(1-(3-amino-5-(trifluoromethyl)phenyl)ethyl)-1-(2-fluoro-3-(methylcarbamoyl)phenyl)-6-oxo-1,6-dihydropyridazine-3-carboxamide]",< 1000 nM
9,"COCCNC(=O)c1cccc(-n2nc(C(=O)N[C@H](C)c3cc(N)cc(C(F)(F)F)c3)ccc2=O)c1F [Example 232, (R)-N-(1-(3-amino-5-(trifluoromethyl)phenyl)ethyl)-1-(2-fluoro-3-((2-methoxyethyl)carbamoyl)phenyl)-6-oxo-1,6-dihydropyridazine-3-carboxamide]",< 1000 nM
10,"C[C@@H](NC(=O)c1ccc(=O)n(-c2cccc(C(=O)N3CCOCC3)c2F)n1)c1cc(N)cc(C(F)(F)F)c1 [Example 233, (R)-N-(1-(3-amino-5-(trifluoromethyl)phenyl)ethyl)-1-(2-fluoro-3-(morpholine-4-carbonyl)phenyl)-6-oxo-1,6-dihydropyridazine-3-carboxamide]",< 1000 nM
11,"CCNC(=O)c1cccc(-n2nc(C(=O)N[C@H](C)c3cc(N)cc(C(F)(F)F)c3)ccc2=O)c1F [Example 234, (R)-N-(1-(3-amino-5-(trifluoromethyl)phenyl)ethyl)-1-(3-(ethylcarbamoyl)-2-fluorophenyl)-6-oxo-1,6-dihydropyridazine-3-carboxamide]",< 1000 nM
12,"C[C@@H](NC(=O)c1ccc(=O)n(-c2cccc(-c3nnco3)c2)n1)c1cc(N)cc(C(F)(F)F)c1 [Example 235, N-[(1R)-1-[3-amino-5-(trifluoromethyl)phenyl]ethyl]-1-[3-(1,3,4-oxadiazol-2-yl)phenyl]-6-oxo-1,6-dihydropyridazine-3-carboxamide]",< 1000 nM
13,"C[C@@H](NC(=O)c1ccc(=O)n(-c2ccc3cnn(C)c3c2)n1)c1cc(N)cc(C(F)(F)F)c1 [Example 236, N-[(1R)-1-[3-amino-5-(trifluoromethyl)phenyl]ethyl]-1-(1-methyl-1H-indazol-6-yl)-6-oxo-1,6-dihydropyridazine-3-carboxamide]",< 1000 nM
14,"[2H]C([2H])([2H])n1nncc1-c1cccc(-n2nc(C(=O)N[C@H](C)c3cc(N)cc(C(F)(F)F)c3)ccc2=O)c1 [Example 237, N-[(1R)-1-[3-amino-5-(trifluoromethyl)phenyl]ethyl]-1-[3-(3-(trideuteriomethyl)triazol-4-yl)phenyl]-6-oxo-pyridazine-3-carboxamide]",< 1000 nM

# Second part, the compound after the results:
row,IC50,SMILES
1,< 1000 nM,"Cc1cc(C(=O)N[C@H](C)c2cc(N)cc(C(F)(F)F)c2)nn(-c2ccccc2)c1=O [Example 214, N-[(1R)-1-[3-amino-5-(trifluoromethyl)phenyl]ethyl]-5-methyl-6-oxo-1-phenyl-pyridazine-3-carboxamide]"
2,< 1000 nM,"COc1ccc(-n2nc(C(=O)N[C@H](C)c3cccc(C(F)(F)CO)c3F)ccc2=O)c(F)c1 [Example 215, N-[(1R)-1-[3-(1,1-difluoro-2-hydroxy-ethyl)-2-fluoro-phenyl]ethyl]-1-(2-fluoro-4-methoxy-phenyl)-6-oxo-pyridazine-3-carboxamide]"
3,< 1000 nM,"C[C@@H](NC(=O)c1ccc(=O)n(-c2ccccc2F)n1)c1cccc(C(F)(F)CO)c1F [Example 217, N-[(1R)-1-[3-(1,1-difluoro-2-hydroxy-ethyl)-2-fluoro-phenyl]ethyl]-1-(2-fluorophenyl)-6-oxo-pyridazine-3-carboxamide]"
4,< 1000 nM,"C[C@@H](NC(=O)c1ccc(=O)n(-c2ccccc2F)c1)c1cc(N)cc(C(F)(F)F)c1 [Example 218, N-[(1R)-1-[3-amino-5-(trifluoromethyl)phenyl]ethyl]-1-(2-fluorophenyl)-6-oxo-pyridine-3-carboxamide]"
5,< 1000 nM,"C[C@@H](NC(=O)c1ccc(=O)n(-c2ccccc2)n1)c1cc(O)cc(F)c1 [Example 219, N-[(1R)-1-(3-fluoro-5-hydroxy-phenyl)ethyl]-6-oxo-1-phenyl-pyridazine-3-carboxamide]"
6,< 1000 nM,"C[C@@H](NC(=O)c1nn(-c2ccccc2)c(=O)cc1Cl)c1cc(N)cc(C(F)(F)F)c1 [Example 220, N-[(1R)-1-[3-amino-5-(trifluoromethyl)phenyl]ethyl]-4-chloro-6-oxo-1-phenyl-pyridazine-3-carboxamide]"
7,< 1000 nM,"C[C@@H](NC(=O)c1ccc(=O)[nH]n1)c1cc(N)cc(C(F)(F)F)c1 [Example 221, N-[(1R)-1-[3-amino-5-(trifluoromethyl)phenyl]ethyl]-6-oxo-1H-pyridazine-3-carboxamide]"
8,< 1000 nM,"COCCn1nc(C(=O)N[C@H](C)c2cc(N)cc(C(F)(F)F)c2)ccc1=O [Example 222, N-[(1R)-1-[3-amino-5-(trifluoromethyl)phenyl]ethyl]-1-(2-methoxyethyl)-6-oxo-pyridazine-3-carboxamide]"
9,< 1000 nM,"C[C@@H](NC(=O)c1ccc(=O)n(CCO)n1)c1cc(N)cc(C(F)(F)F)c1 [Example 223, N-[(1R)-1-[3-amino-5-(trifluoromethyl)phenyl]ethyl]-1-(2-hydroxyethyl)-6-oxo-pyridazine-3-carboxamide]"
10,< 1000 nM,"C[C@@H](NC(=O)c1ccc(=O)n(CC2CC2)n1)c1cc(N)cc(C(F)(F)F)c1 [Example 224, N-[(1R)-1-[3-amino-5-(trifluoromethyl)phenyl]ethyl]-1-(cyclopropylmethyl)-6-oxo-pyridazine-3-carboxamide]"

# — patent EP4667458A1 (Kanaph Therapeutics Inc., priority 2023, dated 2024)
